{"source": "patent US20210054028A1", "about": "“BACTERIAL SIDEROPHORE GRAMIBACTIN” (Leibniz-Institut für Naturstoff-Forschung und …, priority 2017, published 2021)", "key": {"[1]": {"test_system": "corn plants", "assay": "Chlorophyll content determination in hydroponically grown corn plants", "type": "in vivo, Zea mays L. ssp. saccharata", "settings": "50 μM in nutrient solution; 21 d hydroponic growth; 3rd leaf", "procedure": "Corn plants were grown in nutrient solutions deficient in iron, or supplementing either Fe-EDTA (positive control) or Fe-gramibactin. Solvent and metal-free chelators were used as negative controls. As readout for iron uptake we measured the chlorophyll content of youngest leaves, since chlorophyll biosynthesis is strongly dependent on iron availability (11).\nSeeds from maize (Zea mays L. ssp. saccharata) were commercially acquired (Kiepenkerl) and surface sterilized in 4.5% (v/v) sodium hypochlorite for 10 minutes and subsequently rinsed 5 times with 50 mL sterile distilled water. Seeds were germinated in rolled filter papers soaked with sat. CaSO4 solution for 3 d in at 30° C. in the dark. […]\nPlants were grown hydroponically for 21 days using the above described adjusted nutrient solution. […] The last developed leaf of each plant (3rd leaf) was removed, and fresh weight was determined. […] The residue was dissolved in 1 mL methanol and 1:10 or 1:20 dilutions with methanol were analysed spectrophotometrically using a Shimadzu UV-1800 spectrophotometer. Samples were measured at 25° C. using discardable plastic cuvettes (d=1 cm). […] Chlorophyll contents were calculated using the equations developed by Wellburn."}, "[2]": {"test_system": "extracted proteins from corn roots", "assay": "In vitro NO release assay with 2,3-diaminonaphthalene probe", "type": "biochemical, Zea mays L. ssp. saccharata", "settings": "2 mM test substance, 1.2 mM H2O2, 0.2 mM DAN, root proteins, 20 min, pH 6", "protocol": "To probe the proposed enzymatic NO release in vitro, we extracted soluble proteins from ground root tissue of hydroponically grown plants into phosphate buffer. To monitor the liberation of NO in the in vitro enzyme assay, we used 2,3-diaminonaphthalene (DAN) as a reporter. Nitric oxide reacts with this chemical probe to form the 2,3-napthotriazole, and its strong fluorescence can be readily measured using a microplate reader. Extracted root proteins were incubated with the probe, hydrogen peroxide and either Fe-gramibactin or the iron-free ligand, using heat-inactivated proteins as negative control. […] Thus, gramibactin represents a novel NO donor.\nOne-week-old plants were harvested and the roots were rinsed with distilled water. After separating the roots from the shoot, the root tissue was frozen using liquid nitrogen and grounded with mortar and pestle. The plant material was then extracted using 1 mL 66 mm NaH2PO4 buffer (pH 6). The extract was centrifuged to remove remaining plant material, and 20 μL of the supernatant were used for in vitro assays. […] Fluorescence was measured using a Varioskan LUX (Thermo Scientific) microplate reader (IEx.=375 nm, IEm.=415 nm). Fluorescence values were normalized to the sample with the highest fluorescence. Every assay was performed in triplicates and every replicate was measured three times, and the mean of all these replicates was plotted. […]"}, "[3]": {"assay": "Potentiometric and spectrophotometric titrations of the gramibactin/Fe3+ system with EDTA as competitive chelating agent", "type": "physicochemical", "settings": "I=0.1 M KCl", "text": "(§1) To evaluate the actual strength of the siderophore, we conducted potentiometric and spectrophotometric titrations to evaluate the acid/base behavior of gramibactin and to determine the complex formation constant of the iron complex (FIG. 2C). […] It thus appeared conceivable that the rhizosphere bacteria excrete the metal chelator to provide the host plant with iron.\n(§2) Potentiometric ligand competition measurements and calculations have been performed as reported (11) at l=0.1 M in KCl(aq) and at T=25.0±0.1° C., using a Mettler Toledo DL50 apparatus, equipped with a Schott Instruments N6180 combined glass electrode, controlled by LabX light v1.05 software. The titrand solutions consisted in gramibactin (from 0.7 mm to 1 mm), EDTA (as disodium salt) and Fe^3+ (as FeCl3) in different gramibactin:Fe^3+:EDTA ratios, with slight known excess of HCl.\n(§3) This can be explained by a buffering effect of the two N-nitroso-hydroxylamine moieties. […]\n(§4) Titrations were carried out at 0.1 m in KCl(aq) and T=25.0±0.1° C. in a glass cuvette (d=10.00 mm) placed in the spectrometer equipped with a thermostated cell holder. The pH was read out by using a inoLab pH 7110 with a combination electrode (SI analytics, ScienceLine Type N 6000 A). […] UV/Vis-spectra were recorded after every addition of KOH(aq) followed by magnetic stirring (FIG. 12)."}, "[4]": {"test_system": "corn roots", "assay": "In planta NO release assay with DAF-2DA, fluorescence microscopy", "type": "in vivo, Zea mays L. ssp. saccharata", "settings": "100 μM; 1.5-2 h after loading with 10 μM DAF-2DA", "protocol": "To verify the postulated NO release in planta we treated fresh corn seedlings with diaminofluoresceine-2-diacetate (DAF-2DA), a cell-permeable probe that captures NO with formation of a highly fluorescent triazole. After loading maize roots with the chemical probe they were incubated with negative controls, gramibactin, or Fe-gramibactin, then cut and inspected by fluorescence microscopy. […] Thus, NO is in fact liberated from gramibactin in the plant tissue. A weak signal was also detectable in the root treated with the Fe-gramibactin complex. This finding is important as it confirms that iron is removed from gramibactin in vivo, thus providing free ligands that can subsequently release nitric oxide. Finally, fluorescence microscopy also allowed localizing NO, which is apparently released into the intracellular space. This observation is plausible as peroxidases, which are required for NO release, are typically located in the cell membrane.\nYoung seedlings (2-3 days old) were placed in a vial containing 4 mL standard nutrient solution (see above) with 10 μm 4,5-diaminofluorescein diacetate and incubated at room temperature for 30 min. Seedlings were then removed, and the root was rinsed with deionized water before placing them in nutrient solution containing 100 μm gramibactin, 100 μm Fe-gramibactin or no additive (control). […]"}, "[5]": {"assay": "Acid/base titration and speciation of gramibactin", "type": "physicochemical", "settings": "physiological pH; I=0.1 M KCl; 25 °C", "text": "as §1, §2, §3, §4"}}, "note": "Entries after “also recorded” stand apart in the source; their conditions may differ. *1 amine or outer side, *2 acyl side, *3 side chain or, on linkers, in order; H or OH if unused. Where a SMILES comes first, the peptide text is derived from it. Bridges are numbered along the chain shown (N, C = ends). [ ]: non-standard residue; d: D form. The star is where a group is joined. dAsp(3R-OH) = N[C@@H](C(=O)O)[C@@H](O)C(=O)O; X1 = O=NN(O)CCC[C@@H](N[*:1])C(=O)[*:2]; d(aThr) = C[C@@H](O)[C@@H](N)C(=O)O; Octanoyl = CCCCCCCC(=O)*", "data": [{"smiles": "O=C([O-])CN(CCN(CC(=O)[O-])CC(=O)[O-])CC(=O)[O-].[Fe+3]", "note": "[Fe-EDTA]", "values": [{"measurement": "higher total chlorophyll content versus iron-free cultured plants", "setting": "[1]", "result": 50, "unit": "%"}]}, {"smiles": "CCCCCCCC(=O)N[C@@H](C(=O)N[C@@H]1C(=O)N[C@H]([C@@H](C)O)C(=O)N[C@H](CCCN(O)N=O)C(=O)NCC(=O)N[C@H](CCCN(O)N=O)C(=O)O[C@@H]1C)[C@@H](O)C(=O)O", "note": "[gramibactin] (Octanoyl-[dAsp(3R-OH)]T[d(aThr)][X1]G[X1]; ester 2-C)", "values": [{"measurement": "fluorescence of 2,3-naphthotriazole (NO release)", "setting": "[2]", "result": "drastically increased fluorescence; also recorded: liberates NO"}, {"measurement": "log □ (complex formation constant of the iron complex)", "setting": "[3]; disodium EDTA as competitive chelating agent, T=25.0±0.1 °C", "result": "27.6±0.1"}, {"measurement": "protons released upon metal complexation", "setting": "[3]; potentiometric titration, gramibactin:Fe3+ 1:1, 25 °C", "result": "four"}, {"measurement": "DAF-2T fluorescence signal in root cross sections (NO release in planta)", "setting": "[4]", "result": "strong signal; also recorded: liberates NO"}, {"measurement": "protonation state of graminine residues (speciation diagram)", "setting": "[5]", "result": "both graminine residues are deprotonated at physiological pH"}]}]}
